Data set [1] has as its system human glioblastoma U87 MG cells. Kind of data set: Antitumor efficacy study for systemic delivery, subcutaneous U87 MG tumor. The class given is in vivo, athymic nude mice. Particulars: for mean tumor volume: three weeks after treatment. How it is done:
A total of 2×10^6 human glioblastoma U87 MG cells were subcutaneously injected into the right shoulder of athymic nude mice (8-9 weeks old). The mice were used for the efficacy study after three to four weeks when the tumor had reached about 190-250 mm^3 in size. […]. Water insoluble free CPT was dissolved/suspended in a mixture of DMSO/ethanol/PEG-400/water (1:1:2:1). CPT (4.5 mg/kg) and irinotecan (60 mg/kg) were administered by intraperitoneal injection, while freshly prepared TT 1 solutions of various doses were administered intravenously by tail vein injection every 4 days for a total of three doses (days 1, 5, and 9). […]. Tumor volumes were measured and recorded every other day. The body weights were measured and recorded every day or every other day. The tumor volume was determined by measuring the tumor in two dimensions with calipers and using the formula “tumor volume=(length×width^2)/2”. Each animal was euthanized once the tumor volume reached the predetermined end point size of 2000 mm^3.

Data set [2] can be described thus: Encapsulation of hydrophobic dyes and paclitaxel in TT 1 nanotubes. The class given is physicochemical. Here is the method:
A 300 μM in water stock solution of TT 1 prodrug was prepared and aged overnight to form nanotubes. Hydrophobic dyes, such as Coumarin 6 (C6), Nile Red, Rose Bengal lactone (Rose), and IR 780 iodide (IR 780), were dissolved in acetonitrile at a concentration of 600 μM (FIG. 18). To perform the dye encapsulation experiments, 400 μL of the pre-formed nanotube solution and 200 μL of the corresponding dye solution in acetonitrile were mixed together to make a final solution of 600 μL (H2O/MeCN=2:1, v/v) in which the concentration of both prodrug and dye was 200 μM (prodrug/dye=1:1, mol/mol). The resulting mixed nanotube and dye solution was aged overnight to allow the penetration of dye molecules into the nanotube structures and then directly lyophilized to fully remove all the solvents. Next, the lyophilized powder was reconstituted to a final prodrug concentration of 200 μM by the addition of 600 μL of water and vortexing for 60 s. The solutions were aged for at least 6 h before being centrifuged (6000 rpm, 5 min) to remove any precipitated free dye. The supernatant was collected for further study. The dye loading capacity was calculated from the percentage of dye in the supernatant to the sum of encapsulated dye and added prodrugs. To get a higher resolution of dye-doped TT 1 solution, the solutions imaged in FIG. 4A were concentrated to a concentration of 800 μM.
In addition to functional dye molecules, the hydrophobic drug paclitaxel (PTX) was also used as a model compound to dope the TT 1 nanotubes, following the procedure described in the paragraph describing CD measurements of TT solutions above. After encapsulation, analytical HPLC was used to analyze the components of drug-doped nanotubes, monitoring the absorption at 220 nm. […] The concentrations of both nanotube and PTX were determined by comparing the area under the curve of each component with its standard calibration curve, yielding an encapsulation efficiency around 11%. The CD spectrum of PTX-doped nanotube was also recorded, showing a slight decrease in intensity compared with a pure nanotube solution at the same concentration (FIG. 17B).

`CC[C@]1(OC(=O)OCCSSC[C@@H](NC(C)=O)C(=O)N[C@@H](CCCCNC(=O)[C@@H](CSSCCOC(=O)O[C@]2(CC)C(=O)OCc3c2cc2n(c3=O)Cc3cc4ccccc4nc3-2)NC(C)=O)C(=O)N[C@@H](CCCCNC(=O)CCOCCOCCOCCOCCOC)C(=O)N[C@@H](CCCCNC(=O)CCOCCOCCOCCOCCOC)C(N)=O)C(=O)OCc2c1cc1n(c2=O)Cc2cc3ccccc3nc2-1` [TT 1]: the median survival in data set [1] (TT 1 4.5 mg/kg (CPT equivalent) i.v. days 1, 5, 9) was found to be 23 days; in data set [1] (TT 1 9 mg/kg i.v. days 1, 5, 9) it was 37 days; in data set [1] (TT 1 15 mg/kg i.v. days 1, 5, 9), 43 days. Besides, in data set [1] (TT 1 4.5 mg/kg, up to 15 days), the tumor volume is on record as 417 mm^3. The “survival of four out of five mice” value in data set [1] (TT 1 9 mg/kg) was “up to 37 d”; in data set [1] (TT 1 15 mg/kg) it was not above 43 days. The mean tumor volume came out at 94 mm^3 in data set [1] (TT 1 9 mg/kg) and 59 mm^3 in data set [1] (TT 1 15 mg/kg). Further, the dye loading content in data set [2] (Coumarin 6 (C6) in TT 1 assemblies) came out at 4.5%; in data set [2] (IR-780 in TT 1 assemblies), 10.3%; in data set [2] (Nile Red in TT 1 assemblies) it was 4.4%; in data set [2] (Rose Bengal lactone in TT 1 assemblies) it was 14.8%.

For the origin of these results see patent US20220211858A1, “TUBULAR SUPRAMOLECULAR POLYMERS” (priority 2019, published 2022).
